US20210379056A1, “SUBSTITUTED PYRAZOLE FUSED RING DERIVATIVE, PREPARATION METHOD THEREFOR, AND APPLICATION THEREOF” (Applied Pharmaceutical Science, Inc., priority 2018, published 2021)
Like-named read-outs stand apart in the source and are kept apart here.

How the values were obtained:
[1] = molecular target: T1, RET (V804L), activated (Homo sapiens, UniProt P07949, V804L); assay: HTRF kinase activity test, RET V804L; assay type: biochemical; details: Table 2
T1 construct: purchased Signalchem R02-12BG-10
T1 sequence (P07949 29-1114 V804L): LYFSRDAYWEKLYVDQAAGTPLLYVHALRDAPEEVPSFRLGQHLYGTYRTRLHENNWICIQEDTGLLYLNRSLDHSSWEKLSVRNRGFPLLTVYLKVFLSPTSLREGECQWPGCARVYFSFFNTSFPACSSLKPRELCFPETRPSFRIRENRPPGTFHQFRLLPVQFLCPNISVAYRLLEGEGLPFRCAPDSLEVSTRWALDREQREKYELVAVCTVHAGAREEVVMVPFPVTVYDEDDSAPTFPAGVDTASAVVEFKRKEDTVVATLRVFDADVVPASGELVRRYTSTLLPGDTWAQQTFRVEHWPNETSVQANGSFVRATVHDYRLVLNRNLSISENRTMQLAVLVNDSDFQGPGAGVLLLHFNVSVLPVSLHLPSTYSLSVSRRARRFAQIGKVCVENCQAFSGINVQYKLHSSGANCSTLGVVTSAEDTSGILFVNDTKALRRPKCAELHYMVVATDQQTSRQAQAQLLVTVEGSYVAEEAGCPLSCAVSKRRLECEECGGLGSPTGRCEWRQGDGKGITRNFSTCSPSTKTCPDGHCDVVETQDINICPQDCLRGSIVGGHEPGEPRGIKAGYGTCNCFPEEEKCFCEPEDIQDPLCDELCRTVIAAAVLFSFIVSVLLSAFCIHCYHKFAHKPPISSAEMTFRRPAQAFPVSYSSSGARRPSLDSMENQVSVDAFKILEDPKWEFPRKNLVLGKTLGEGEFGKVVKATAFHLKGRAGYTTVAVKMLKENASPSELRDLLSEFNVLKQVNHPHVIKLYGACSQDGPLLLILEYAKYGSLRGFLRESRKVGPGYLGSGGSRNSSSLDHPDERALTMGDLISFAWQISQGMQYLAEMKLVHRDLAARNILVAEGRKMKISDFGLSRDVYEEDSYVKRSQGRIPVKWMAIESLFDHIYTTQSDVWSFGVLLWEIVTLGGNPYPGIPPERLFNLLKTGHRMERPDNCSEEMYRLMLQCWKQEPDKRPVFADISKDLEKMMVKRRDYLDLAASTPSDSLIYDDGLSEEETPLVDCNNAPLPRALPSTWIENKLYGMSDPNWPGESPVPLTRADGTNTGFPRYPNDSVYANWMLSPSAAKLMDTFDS
Protocol: (§1) This test combined peptide substrates and a single proprietary monoclonal antibody with HTRF technology, which was a highly sensitive and stable technology for detecting molecular interactions of proteins. The enzyme phosphorylates the substrate, then the Eu-labeled antibody binds to the phosphorylated substrate, and streptavidin-XL665 binds to all substrates. The TR-FRET signal was generated by the HTRF principle. […] Based on this, the inhibitory effect was evaluated.
(§2) The other compounds were diluted 3-fold gradiently with DMSO from the 10 mM stock solution to a total of 10 concentrations respectively.
(§3) Adding 4 volumes of distilled water to 1 volume of enzyme buffer 5×; 5 mM MgCl2; 1 mM DTT.
(§4) b) centrifuging the compound plate for 1 minute at 1000 g.
(§5) c) sealing the test board.
(§6) f) adding 4 μl of 1× kinase buffer to each well of the test plate, centrifuging the sample plate at 1000 g for 30 seconds, and placing it at room temperature for 10 minutes.
g) preparing a solution of 5× TK-substrate-biotin ([…]) in kinase buffer and 5×ATP (50 μM) in kinase buffer respectively. […]
(§7) The inhibition rate % was calculated as follows:
(§8) Inhibition rate %=[1−(fluorescence signal value of test compound−fluorescence signal value of positive control)/(average ratio of negative control−average ratio of positive control)]*100%
Ratio: generated from the measured fluorescence signal value […]

[2] = tested on: TT Cell; assay: Cell inhibitory activity test (CCK8); assay type: cell-based; details: Homo sapiens, TT, Table 3, 72 hours incubation
In short: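 Cells seeded at 4000/well, pre-incubated 24 h (37 °C, 5% CO2), then exposed to graded compound concentrations for 72 h. Viability read by CCK8 at 450 nm after 1-2 h; IC50 fitted from concentration-absorbance data.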

[3] = tested on: RET wild-type, mutant and/or fusion-type; assay: Overall statement on RET inhibitory activity (summary of Table 3); details: statement in words summarising Table 3
Text: As shown in the above table, the example compounds of the present disclosure have improved inhibitory activity against RET wild-type, mutant and/or fusion-type.

[4] = molecular target: T2, Ret wt (Homo sapiens, UniProt P07949); assay: HTRF kinase activity test, RET wild type; assay type: biochemical
T2 construct: purchased Invitrogen PV3082
T2 sequence (P07949 29-1114): as the sequence (P07949 29-1114 V804L) above, with L776V counted along it
Protocol: as §1, §2, §3, §4, §5, §6
(§9) g) preparing a solution of 5× TK-substrate-biotin ([…]) in kinase buffer and 5×ATP (50 μM) in kinase buffer respectively.
(§10) h) starting the reaction by adding 2 μl STK-substrate-biotin and 2 μl ATP (prepared in the step g).
(§11) i) centrifuging the sample plate for 30 seconds at 1000 g. Sealing the test board and placing it at room temperature for 30 minutes.
(§12) ) centrifuging at 1000 g for 30 seconds and placing it at room temperature for 1 hour.
as §7, §8
(§13) Ratio: generated from the measured fluorescence signal value
(§14) The average ratio of the positive control is the average ratio of the positive control (200 nM AT13148) in the sample plate;
(§15) The average ratio of negative controls is the average ratio of negative controls (0.1% DMSO) in the sample plate.
(§16) GraphPad 6.0 was used to fit the logarithm of the % inhibition rate and the compound concentration into a nonlinear regression (dose response−variable slope) to calculate the IC50 value.

[5] = molecular target: T3, RET (V804M) (Homo sapiens, UniProt P07949, V804M); assay: HTRF kinase activity test, RET V804M; assay type: biochemical; details: Table 3; read-out: RET Enzyme (V804M) IC50
T3 construct: purchased Signalchem R02-12GG
T3 sequence (P07949 29-1114 V804M): as the sequence (P07949 29-1114 V804L) above, with L776M counted along it
Protocol: This test combined peptide substrates and a single proprietary monoclonal antibody with HTRF technology, which was a highly sensitive and stable technology for detecting molecular interactions of proteins. The enzyme phosphorylates the substrate, then the Eu-labeled antibody binds to the phosphorylated substrate, and streptavidin-XL665 binds to all substrates. The TR-FRET signal was generated by the HTRF principle. Once the inhibitor (test compound) was added, a weaker TR-FRET signal is obtained. Based on this, the inhibitory effect was evaluated.
as §2, §3
a) Transferring 10 nl of the compound dilution (prepared in 5.2) to each well of the test plate (784075, Greiner);
as §4, §5
d) preparing 5×Ret wt (0.2 ng/μl) and 5×Ret V804L (0.5 ng/μl)/5×Ret V804M (0.5 ng/μl) in 1× kinase buffer respectively.
e) adding 2 μl of 5×Ret wt or 2 μl of Ret V804L/RET V804M to a 384-well test plate (784075, Greiner).
as §6, §9, §10, §11
j) preparing 4×Sa-XL 665 (250 nM) in HTRF detection buffer.
k) adding 5 μl of Sa-XL 665 and 5 μl of TK-antibody-Cryptate (prepared in the step i) to each well of the test plate.
as §12
m) reading the fluorescence signal values at 615 nm (Cryptate) and 665 nm (XL665) on the Envision 2104 plate reader.
Calculating the ratio of each hole (665 nm/615 nm).
as §7, §8, §13, §14, §15, §16

[6] = Table 2, read-out: IC50 (nM) RET wt
[7] = Table 3, read-out: RET Enzyme (wild type) IC50

Compound	IC50 [1] [nM]	IC50 [2] [nM]	inhibitory activity against RET wild-type, mutant and/or fusion-type [3]	IC50 [4, 6] [nM]	IC50 [4, 7] [nM]	IC50 [5] [nM]
Cn1cc(-c2cc(-c3ccc(N4CCN(C(=O)Cc5ccc(F)cn5)CC4)nc3)c3c(C#N)c(N)nn3c2)cn1 [APS069, 2-amino-4-(6-(4-(2-(5-fluoropyridin-2-yl)acetyl)piperazin-1-yl)pyridin-3-yl)-6-(1-methyl-1H-pyrazol-4-yl)pyrazolo[1,5-a]pyridine-3-carbonitrile]	0.124	28.8	excellent activity	0.325	< 1	
Cn1cc(-c2cc(-c3ccc(N4CCC(Cc5ccccn5)CC4)nc3)c3c(C#N)c(N)nn3c2)cn1 [APS070, 2-amino-6-(1-methyl-1H-pyrazol-4-yl)-4-(6-(4-(pyridin-2-yl-methyl)piperidin-1-yl)pyridin-3-yl)pyrazolo[1,5-a]pyridine-3-carbonitrile]	0.0759	15.6	excellent activity	0.418	< 1	
COCCOc1cc(-c2ccc(N3CC4CC(C3)N4Cc3ccc(OC)nc3)nc2)c2c(C#N)c(N)nn2c1 [APS097, 2-amino-6-(2-methoxyethoxy)-4-(6-(6-((6-methoxypyridin-3-yl)methyl)-3,6-diazabicyclo[3.1.1]heptan-3-yl)pyridin-3-yl)pyrazolo[1,5-a]pyridine-3-carbonitrile]		75.5	excellent activity		< 1	< 1
CCOc1cc(-c2ccc(N3CC4CC(C3)N4Cc3cnc(OC)c(Cl)c3)nc2)c2c(C#N)c(N)nn2c1 [APS105]		28.1	excellent activity		< 1	< 1
COc1ccc(CN2C3CC2CN(c2cnc(-c4cc(OC[C@@H]5CN(C)CCO5)cn5nc(N)c(C#N)c45)cn2)C3)cn1 [APS107, 2-amino-4-(5-(6-((6-methoxypyridin-3-yl)methyl)-3,6-diazabicyclo[3.1.1]heptan-3-yl)pyrazin-2-yl)-6-(((S)-4-methylmorpholin-2-yl)methoxy)pyrazolo[1,5-a]pyridine-3-carbonitrile]		16.3	excellent activity		< 1	< 1
COCCOc1cc(-c2ccc(N3CC4CC(C3)N4Cc3cnc(OC)c(Cl)c3)nc2)c2c(C#N)c(N)nn2c1 [APS108, 2-amino-4-(6-(6-((5-chloro-6-methoxypyridin-3-yl)methyl)-3,6-diazabicyclo[3.1.1]heptane-3-yl)pyridin-3-yl)-6-(2-methoxyethoxy)pyrazolo[1,5-a]pyridine-3-carbonitrile]		10.7	excellent activity		< 1	< 1
CCOCCOc1cc(-c2ccc(N3CC4CC(C3)N4Cc3ccc(OC)nc3)nc2)c2c(C#N)c(N)nn2c1 [APS109, 2-amino-6-(2-ethoxyethoxy)-4-(6-(6-((6-methoxypyridin-3-yl)methyl)-3,6-diazabicyclo [3.1.1]heptan-3-yl)pyridin-3-yl)pyrazolo[1,5-a]pyridine-3-carbonitrile]		57.9	excellent activity		< 1	< 1
COc1ccc(CN2C3CC2CN(c2ccc(-c4cc(OCCOC5CC5)cn5nc(N)c(C#N)c45)cn2)C3)cn1 [APS113, 2-amino-6-(2-cyclopropoxyethoxy)-4-(6-(6-((6-methoxypyridin-3-yl)methyl)-3,6-diazabicyclo[3.1.1]heptan-3-yl)pyridin-3-yl)pyrazolo[1,5-a]pyridine-3-carbonitrile]		83.5	excellent activity		< 1	< 1
COc1ccc(CN2C3CC2CN(c2ccc(-c4cc(OCCF)cn5nc(N)c(C#N)c45)cn2)C3)cn1 [APS119, 2-amino-6-(2-fluoroethoxy)-4-(6-(6-((6-methoxypyridin-3-yl)methyl)-3,6-diazabicyclo[3.1.1]heptan-3-yl)pyridin-3-yl)pyrazolo[1,5-a]pyridine-3-carbonitrile]		6.6	excellent activity		< 1	< 1
